Data published in US20240065270A1 (priority 2018, published 2024).
“Also recorded” adds a separate entry of the source.

Columns and labels:
[1] = system: plants expressing CesA6 carrying mis-sense mutations at the catalytic site; test: Growth of transgenic plants expressing CesA6 with mis-sense mutations at the hypothesized Cellulosin binding sites; type: in vivo, Arabidopsis; details: cesa6 loss-of-function mutant background; compared with DMSO control
Source text: (§1) Recently, we discovered a new cellulose synthase inhibitor Cellulosin and a group of cesa6 mutants that carry mis-sense mutations at the central cytoplasmic region that contains the catalytic motif and are resistant to Cellulosin. In order to test whether Cellulosin has the same mode of action as isoxaben, indaziflam and C17, we first tested the growth of isoxaben resistant mutants on media supplemented with Cellulosin. […] We next tested the growth of our Cellulosin resistant mutants on isoxaben, indaziflam and C17.

[2] = system: Arabidopsis wildtype plants; test: Growth (root length) of Arabidopsis wildtype plants on media with low-dose herbicides, alone and combined; type: in vivo
Method: Because Cellulosin has different target as isoxaben, indaziflam and C17. Since the need to avoid the development of herbicide-resistant weeds that is caused by repetitive application of the same herbicide is utmost, we decided to test whether application of Cellulosin together with isoxaben, indaziflam and C17 would make it possible to control the weeds more efficiently with reduced dosage of two herbicides.
Statistically significant differences in right panels were determined by one-way ANOVA test followed by Tukey's multiple comparisons test. Different letters of root length of seedlings indicate significant difference between groups (p<0.05). N=12.
[…] Bar, 1 cm.
Because Cellulosin and isoxaben target CesA at different sites, it allowed us to hypothesize that application of both herbicides at the same time will make it possible to control the weeds with reduced dosage of both herbicides. This should also avoid the development of herbicide-resistant weeds that is caused by repetitive application of the same herbicide. We tested the growth of Arabidopsis at lower dosage of both Cellulosin and isoxaben.

[3] = system: Cellulosin resistant mutants (cesa6); test: Growth (root length) of Cellulosin resistant cesa6 mutants on supplemented media; type: in vivo, Arabidopsis; details: media supplemented with the compound, compared with DMSO control
Source text: as §1
FIGS. 2E-2G depict quantifications of root length of Cellulosin resistant mutants on media supplemented with isoxaben (FIG. 2E), indaziflam (FIG. 2F), and C17 (FIG. 2G) in comparison with DMSO control, Statistically significant differences in right panels were determined by one-way ANOVA test followed by Tukey's multiple comparisons test. Different letters of root length of seedlings indicate significant difference between groups (p<0.05). Bars: 1 cm.

[4] = system: Arabidopsis mutants ixr1-1, ixr1-2 and ixr2-1; test: Growth (root length) of isoxaben resistant mutants ixr1-1, ixr1-2, ixr2-1 on supplemented media; type: in vivo; details: media supplemented with the compound
Source text: as §1
Wildtype (WT) Arabidopsis and its mutants ixr1-1, ixr1-2, and ixr2-1 are grown on media supplemented with DMSO (FIGS. 1A-1B), isoxaben (FIGS. 1C-1D) or Cellulosin (FIGS. 1E-1F) and their quantifications on their root length. Arabidopsis mutants ixr1-1, ixr1-2 and ixr2-1 have longer roots in compare with wildtype (Col) on media supplemented with isoxaben. […] Bars: 1 cm

Structure (SMILES)	resistance / sensitivity in growth of plants expressing mutated CesA6 [1]	plant growth inhibition ([2]; 0.06 nM indaziflam alone in growth media)	plant growth inhibition ([2]; 0.25 nM indaziflam alone in growth media)	sensitivity of Cellulosin resistant mutants in growth (root length) [3]	plant growth inhibition ([2]; 3.5 nM isoxaben alone, nine days old plants)	plant growth inhibition ([2]; 4 nM isoxaben alone in growth media)	growth / root length of isoxaben resistant mutants compared with wildtype (Col) [4]
Cc1ccc2c(c1)[C@H](Nc1nc(N)nc(C(C)F)n1)[C@@H](C)C2 (stereo partly drawn) [indaziflam]	do not show resistance; also recorded: they have the same sensitivity	did not inhibit plant growth; also recorded: does not significantly inhibit plant growth	not inhibited	Most of our mutants that are resistant to Cellulosin are sensitive; also recorded: only a few of our mutants show reduced sensitivity			
CCC(C)(CC)c1cc(NC(=O)c2c(OC)cccc2OC)on1 [isoxaben, N-3[1-ethyl-1-methylpropyl]-5-isoxazolyl-2,6, or dimethoxybenzamide]	do not show resistance; also recorded: they have the same sensitivity			Most of our mutants that are resistant to Cellulosin are sensitive; also recorded: only a few of our mutants show reduced sensitivity	Neither 300 nM Cellulosin nor 3.5 nM isoxaben significantly inhibits plant growth; also recorded: does not significantly inhibit plant growth	not inhibited; also recorded: did not inhibit plant growth; also recorded: does not significantly inhibit plant growth	longer roots
